Source: ChEMBL document CHEMBL1201862, “PubChem BioAssay data set” (2004)
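Grown in 96-well plates, cells were treated for 48 hours with each compound at five concentrations. Insufficient inhibition: endpoint recorded as highest concentration tested. Here, GI50 denotes the concentration required for 50% inhibition of growth.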 Calls of active or inactive are those of the source. Rule as the data show it: active = GI50 up to about 1.1 µM and inactive = higher.

Key:
Test in all cases: DTP human tumour cell line panel, 48 h
OVCAR-3 = test system: OVCAR-3
UO-31 = test system: UO-31
ACHN = test system: ACHN
MDA-N = test system: MDA-N
Hs-578T = test system: Hs-578T
SF-295 = test system: SF-295
SK-MEL-2 = test system: SK-MEL-2
CCRF-CEM = test system: CCRF-CEM
U-251 = test system: U-251
RXF 393 = test system: RXF 393
HOP-62 = test system: HOP-62
DU-145 = test system: DU-145
NCI/ADR-RES = test system: NCI/ADR-RES
SN12C = test system: SN12C
IGROV-1 = test system: IGROV-1
MDA-MB-231 = test system: MDA-MB-231
TK-10 = test system: TK-10
NCI-H23 = test system: NCI-H23
OVCAR-8 = test system: OVCAR-8
786-0 = test system: 786-0
SF-268 = test system: SF-268
A498 = test system: A498
OVCAR-5 = test system: OVCAR-5
MOLT-4 = test system: MOLT-4
HT-29 = test system: HT-29
EKVX = test system: EKVX
UACC-62 = test system: UACC-62
BT-549 = test system: BT-549
SK-MEL-28 = test system: SK-MEL-28
HCT-116 = test system: HCT-116
MCF7 = test system: MCF7
M14 = test system: M14
K562 = test system: K562
HCC 2998 = test system: HCC 2998
NCI-H460 = test system: NCI-H460
HCT-15 = test system: HCT-15
Malme-3M = test system: Malme-3M
SF-539 = test system: SF-539
SK-MEL-5 = test system: SK-MEL-5
SNB-19 = test system: SNB-19
SW-620 = test system: SW-620
PC-3 = test system: PC-3
NCI-H226 = test system: NCI-H226
A549 = test system: A549
HOP-92 = test system: HOP-92
HL-60 = test system: HL-60
KM12 = test system: KM12
T47D = test system: T47D
SK-OV-3 = test system: SK-OV-3
SR = test system: SR
MDA-MB-435 = test system: MDA-MB-435
NCI-H522 = test system: NCI-H522
RPMI-8226 = test system: RPMI-8226
SNB-75 = test system: SNB-75
COLO 205 = test system: COLO 205
UACC-257 = test system: UACC-257
OVCAR-4 = test system: OVCAR-4
CAKI-1 = test system: CAKI-1
LOX IMVI = test system: LOX IMVI

Measured: GI50

Cc1ccc(SC2C(=O)C3CC(OCc4ccccc4)C2(C)C3(C)C)cc1 (configuration not stated)
inactive: OVCAR-3 > 100 µM | UO-31 > 100 µM | ACHN > 100 µM | MDA-N > 100 µM | Hs-578T > 100 µM | SF-295 > 100 µM | SK-MEL-2 38.7 µM | CCRF-CEM 73.8 µM | U-251 39.3 µM | RXF 393 52 µM | HOP-62 > 100 µM | DU-145 > 100 µM | NCI/ADR-RES > 100 µM | SN12C > 100 µM | IGROV-1 > 100 µM | MDA-MB-231 > 100 µM | TK-10 > 100 µM | NCI-H23 46.8 µM | OVCAR-8 > 100 µM | 786-0 > 100 µM | SF-268 > 100 µM | A498 > 100 µM | OVCAR-5 > 100 µM | MOLT-4 13 µM | HT-29 41.9 µM | EKVX 64.7 µM | UACC-62 > 100 µM | BT-549 > 100 µM | SK-MEL-28 > 100 µM | HCT-116 9.66 µM | MCF7 > 100 µM | M14 > 100 µM | K562 32.9 µM | HCC 2998 > 100 µM | NCI-H460 > 100 µM | Malme-3M > 100 µM | SF-539 > 100 µM | SK-MEL-5 > 100 µM | SNB-19 > 100 µM | SW-620 > 100 µM | PC-3 12.4 µM | NCI-H226 > 100 µM | A549 > 100 µM | HOP-92 29.6 µM | HL-60 37.9 µM | KM12 > 100 µM | T47D 13.1 µM | SK-OV-3 > 100 µM | SR 51.3 µM | MDA-MB-435 > 100 µM
29.1 µM: HCT-15

Cc1ccc(S(=O)(=O)NN=C2C(C)CC(C(C)(C)C)CC2C)cc1 (configuration not stated)
inactive: OVCAR-3 16.6 µM | UO-31 21 µM | MDA-N 19.3 µM | Hs-578T 37.2 µM | SF-295 18.1 µM | SK-MEL-2 16.2 µM | CCRF-CEM 20 µM | U-251 17.7 µM | HOP-62 16.4 µM | DU-145 19.7 µM | NCI-H522 18.6 µM | NCI/ADR-RES 31.6 µM | SN12C 18.4 µM | IGROV-1 38.9 µM | MDA-MB-231 28.6 µM | TK-10 26.4 µM | NCI-H23 24.4 µM | OVCAR-8 24.1 µM | 786-0 17.4 µM | A498 17.4 µM | OVCAR-5 17.5 µM | MOLT-4 20.6 µM | HT-29 18.5 µM | UACC-62 32.3 µM | RPMI-8226 23.2 µM | BT-549 17.9 µM | SK-MEL-28 20 µM | HCT-116 17.5 µM | SNB-75 20.4 µM | MCF7 21.1 µM | M14 13.5 µM | K562 21 µM | HCC 2998 17.7 µM | NCI-H460 18.8 µM | Malme-3M 17.8 µM | SF-539 95.1 µM | COLO 205 18.4 µM | SK-MEL-5 17.3 µM | SNB-19 26.3 µM | UACC-257 19.1 µM | SW-620 20 µM | PC-3 18.8 µM | OVCAR-4 14.9 µM | NCI-H226 19 µM | A549 17.9 µM | HOP-92 15.5 µM | HL-60 25.9 µM | KM12 17.6 µM | CAKI-1 16.9 µM | T47D 21.7 µM | SK-OV-3 24.4 µM | SR 26.8 µM | LOX IMVI 17.9 µM | MDA-MB-435 20 µM
18.2 µM: HCT-15

CC1SCCc2nc3ccccc3n21 (configuration not stated)
> 100 µM: HCT-15
inactive: OVCAR-3 > 100 µM | UO-31 > 100 µM | MDA-N > 100 µM | Hs-578T > 100 µM | SF-295 > 100 µM | SK-MEL-2 > 100 µM | CCRF-CEM > 100 µM | U-251 > 100 µM | RXF 393 > 100 µM | HOP-62 > 100 µM | DU-145 > 100 µM | NCI/ADR-RES > 100 µM | SN12C > 100 µM | IGROV-1 > 100 µM | MDA-MB-231 > 100 µM | TK-10 > 100 µM | NCI-H23 > 100 µM | OVCAR-8 > 100 µM | 786-0 > 100 µM | SF-268 > 100 µM | A498 > 100 µM | OVCAR-5 > 100 µM | MOLT-4 > 100 µM | HT-29 > 100 µM | EKVX > 100 µM | UACC-62 > 100 µM | RPMI-8226 > 100 µM | BT-549 > 100 µM | SK-MEL-28 > 100 µM | HCT-116 > 100 µM | SNB-75 > 100 µM | MCF7 > 100 µM | M14 > 100 µM | K562 > 100 µM | HCC 2998 > 100 µM | NCI-H460 > 100 µM | SF-539 > 100 µM | COLO 205 > 100 µM | SK-MEL-5 > 100 µM | SNB-19 > 100 µM | UACC-257 > 100 µM | SW-620 > 100 µM | PC-3 > 100 µM | OVCAR-4 > 100 µM | NCI-H226 > 100 µM | A549 > 100 µM | HOP-92 > 100 µM | HL-60 > 100 µM | KM12 > 100 µM | CAKI-1 > 100 µM | T47D > 100 µM | SK-OV-3 > 100 µM | SR > 100 µM | LOX IMVI > 100 µM | MDA-MB-435 > 100 µM
